The text below walks through data of ChEMBL document CHEMBL1133256, “6-Bicyclopiperazinyl-1-arylsulfonylindoles and 6-bicyclopiperidinyl-1-arylsulfonylindoles derivatives as novel, potent, and selective 5-HT6 receptor antagonists” (Bioorg Med Chem Lett, 2000).

SMILES strings stand for the structures.

Assay [1] has as its target 5-hydroxytryptamine receptor 6 (Homo sapiens, UniProt P50406). The assay can be described thus: Displacement of [3H]LSD from human 5-hydroxytryptamine 6 receptor expressed in HEK 293 cells. Type of assay: cell-based, HEK293. For orientation: Displacement assays read how much labelled ligand stays bound in the presence of the test substance.
In assay [2] the target is T1, 5-hydroxytryptamine receptor 1A (Homo sapiens) (UniProt P08908).
T1 sequence (whole entry): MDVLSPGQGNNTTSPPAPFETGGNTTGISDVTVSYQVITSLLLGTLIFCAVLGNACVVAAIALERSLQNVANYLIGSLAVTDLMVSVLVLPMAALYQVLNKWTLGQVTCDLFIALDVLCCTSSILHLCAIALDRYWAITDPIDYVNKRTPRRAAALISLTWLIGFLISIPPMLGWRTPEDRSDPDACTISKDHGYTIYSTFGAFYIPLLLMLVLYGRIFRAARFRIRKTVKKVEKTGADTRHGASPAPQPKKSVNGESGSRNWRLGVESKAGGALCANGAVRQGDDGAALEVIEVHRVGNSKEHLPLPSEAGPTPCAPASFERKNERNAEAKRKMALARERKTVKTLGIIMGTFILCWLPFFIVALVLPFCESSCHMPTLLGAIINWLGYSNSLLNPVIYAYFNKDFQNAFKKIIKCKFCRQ
The assay can be described thus: In vitro binding affinity against human 5-hydroxytryptamine 1A receptor at a concentration of 100 (nM).

Assay [3] deals with 5-hydroxytryptamine receptor 1B (Homo sapiens) (UniProt P28222). Put plainly: In vitro binding affinity against human 5-hydroxytryptamine 1B receptor at a concentration of 100 (nM).
For assay [4], the target named is T2, 5-hydroxytryptamine receptor 1F (Homo sapiens) (UniProt P30939).
T2 sequence (whole entry): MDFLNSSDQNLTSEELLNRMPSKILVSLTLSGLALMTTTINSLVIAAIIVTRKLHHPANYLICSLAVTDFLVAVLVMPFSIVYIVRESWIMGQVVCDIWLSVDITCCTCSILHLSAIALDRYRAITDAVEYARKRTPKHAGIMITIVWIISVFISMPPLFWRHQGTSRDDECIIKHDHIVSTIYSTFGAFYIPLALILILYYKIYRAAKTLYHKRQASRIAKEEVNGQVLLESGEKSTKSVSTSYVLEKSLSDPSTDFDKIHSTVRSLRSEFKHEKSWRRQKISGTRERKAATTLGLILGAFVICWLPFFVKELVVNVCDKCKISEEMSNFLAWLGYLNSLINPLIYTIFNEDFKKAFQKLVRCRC
Put plainly: In vitro binding affinity against human 5-hydroxytryptamine 1F receptor at a concentration of 100 (nM).

Assay [5] has as its target 5-hydroxytryptamine receptor 1D (Homo sapiens) (UniProt P28221). The assay can be described thus: In vitro binding affinity against human 5-hydroxytryptamine 1D receptor at a concentration of 100 (nM).
The target in assay [6] is 5-hydroxytryptamine receptor 2A (Homo sapiens) (UniProt P28223). The assay can be described thus: In vitro binding affinity against human 5-hydroxytryptamine 2A receptor at a concentration of 100 (nM).
Assay [7] concerns the target 5-hydroxytryptamine receptor 2B (Homo sapiens) (UniProt P41595). The assay can be described thus: In vitro binding affinity against human 5-HT2B receptor at a concentration of 100 (nM).
Assay [8] has as its target T3, 5-hydroxytryptamine receptor 2C (Homo sapiens) (UniProt P28335).
T3 sequence (whole entry): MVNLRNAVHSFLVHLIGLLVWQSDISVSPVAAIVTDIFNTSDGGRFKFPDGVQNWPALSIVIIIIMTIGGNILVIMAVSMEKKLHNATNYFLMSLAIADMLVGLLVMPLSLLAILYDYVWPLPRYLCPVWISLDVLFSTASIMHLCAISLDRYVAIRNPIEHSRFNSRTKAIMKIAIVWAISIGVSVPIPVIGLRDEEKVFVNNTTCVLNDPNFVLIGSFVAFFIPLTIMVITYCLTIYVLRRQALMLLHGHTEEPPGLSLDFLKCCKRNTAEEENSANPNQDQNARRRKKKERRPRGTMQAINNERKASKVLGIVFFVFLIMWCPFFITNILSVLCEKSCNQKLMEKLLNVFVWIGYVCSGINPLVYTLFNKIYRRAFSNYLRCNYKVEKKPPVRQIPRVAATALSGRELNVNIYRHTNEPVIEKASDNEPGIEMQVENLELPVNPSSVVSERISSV
The assay can be described thus: In vitro binding affinity against human 5-hydroxytryptamine 2C receptor at a concentration of 100 (nM).

Assay [9] has as its target 5-hydroxytryptamine receptor 7 (Homo sapiens) (UniProt P34969). Put plainly: In vitro binding affinity against human 5-hydroxytryptamine 7 receptor at a concentration of 100 (nM).
Assay [10] addresses Adrenergic receptor alpha-1 (Homo sapiens) (UniProt P35348+P25100+P35368). The assay can be described thus: In vitro binding affinity against human Alpha-1 adrenergic receptor at a concentration of 100 (nM). Type of assay: protein assay.
Assay [11] addresses D(1A) dopamine receptor (Homo sapiens) (UniProt P21728). Put plainly: In vitro binding affinity against human Dopamine receptor D1 at a concentration of 100 (nM).
Assay [12] addresses D(3) dopamine receptor (Homo sapiens) (UniProt P35462). Put plainly: In vitro binding affinity against human Dopamine receptor D3 at a concentration of 100 (nM).
For assay [13], the target named is T4, D(4) dopamine receptor (Homo sapiens) (UniProt P21917).
T4 sequence (whole entry): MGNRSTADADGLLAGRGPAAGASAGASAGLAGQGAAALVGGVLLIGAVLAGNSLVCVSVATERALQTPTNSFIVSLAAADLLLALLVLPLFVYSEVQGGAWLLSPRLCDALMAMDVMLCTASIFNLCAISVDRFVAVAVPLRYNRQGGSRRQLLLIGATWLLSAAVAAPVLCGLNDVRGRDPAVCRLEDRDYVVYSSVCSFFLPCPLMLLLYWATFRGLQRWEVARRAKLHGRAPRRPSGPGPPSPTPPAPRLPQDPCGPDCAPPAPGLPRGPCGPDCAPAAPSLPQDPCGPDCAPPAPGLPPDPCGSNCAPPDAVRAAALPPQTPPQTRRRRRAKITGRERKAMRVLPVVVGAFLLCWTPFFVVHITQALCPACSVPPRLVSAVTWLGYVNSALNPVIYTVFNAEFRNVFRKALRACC
The assay can be described thus: In vitro binding affinity against human Dopamine receptor D4 at a concentration of 100 (nM).

Assay [14] has as its target D(1B) dopamine receptor (Homo sapiens) (UniProt P21918). Put plainly: In vitro binding affinity against human D5 receptor at a concentration of 100 (nM).
Assay [15] deals with Muscarinic acetylcholine receptors; M1 & M2 (Homo sapiens) (UniProt P11229+P08172). Put plainly: In vitro binding affinity against human Muscarinic acetylcholine receptor M1- Muscarinic acetylcholine receptor M2 at a concentration of 100 (nM). Type of assay: protein assay.
Assay [16] addresses D(2) dopamine receptor (Homo sapiens) (UniProt P14416). The assay can be described thus: In vitro binding affinity against human Dopamine receptor D2 at a concentration of 100 (nM).

5-hydroxytryptamine receptor 6, sequence (P50406 whole entry): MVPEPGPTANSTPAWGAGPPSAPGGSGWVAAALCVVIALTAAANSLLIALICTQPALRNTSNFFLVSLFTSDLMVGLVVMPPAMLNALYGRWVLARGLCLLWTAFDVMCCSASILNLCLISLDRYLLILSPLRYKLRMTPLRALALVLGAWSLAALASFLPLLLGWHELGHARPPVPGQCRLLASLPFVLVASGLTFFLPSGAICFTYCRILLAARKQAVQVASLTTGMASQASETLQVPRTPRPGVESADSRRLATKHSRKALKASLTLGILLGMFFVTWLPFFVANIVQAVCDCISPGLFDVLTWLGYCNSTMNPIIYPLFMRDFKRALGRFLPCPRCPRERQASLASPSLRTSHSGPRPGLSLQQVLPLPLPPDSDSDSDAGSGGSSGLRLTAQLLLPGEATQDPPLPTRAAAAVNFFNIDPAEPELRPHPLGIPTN
D(1A) dopamine receptor (Homo sapiens), sequence (P21728 whole entry): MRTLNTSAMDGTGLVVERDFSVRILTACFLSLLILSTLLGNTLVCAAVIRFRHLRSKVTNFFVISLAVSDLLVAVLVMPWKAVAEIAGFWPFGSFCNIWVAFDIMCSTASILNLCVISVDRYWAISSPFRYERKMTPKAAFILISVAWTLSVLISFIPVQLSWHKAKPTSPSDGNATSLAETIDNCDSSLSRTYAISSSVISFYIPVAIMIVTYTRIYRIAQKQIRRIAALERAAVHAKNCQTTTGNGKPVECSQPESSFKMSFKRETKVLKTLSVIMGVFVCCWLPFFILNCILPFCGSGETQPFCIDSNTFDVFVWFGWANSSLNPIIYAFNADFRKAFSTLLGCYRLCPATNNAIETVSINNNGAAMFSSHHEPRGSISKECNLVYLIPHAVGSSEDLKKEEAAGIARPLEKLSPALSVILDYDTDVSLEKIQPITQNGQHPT
D(3) dopamine receptor (Homo sapiens), sequence (P35462 whole entry): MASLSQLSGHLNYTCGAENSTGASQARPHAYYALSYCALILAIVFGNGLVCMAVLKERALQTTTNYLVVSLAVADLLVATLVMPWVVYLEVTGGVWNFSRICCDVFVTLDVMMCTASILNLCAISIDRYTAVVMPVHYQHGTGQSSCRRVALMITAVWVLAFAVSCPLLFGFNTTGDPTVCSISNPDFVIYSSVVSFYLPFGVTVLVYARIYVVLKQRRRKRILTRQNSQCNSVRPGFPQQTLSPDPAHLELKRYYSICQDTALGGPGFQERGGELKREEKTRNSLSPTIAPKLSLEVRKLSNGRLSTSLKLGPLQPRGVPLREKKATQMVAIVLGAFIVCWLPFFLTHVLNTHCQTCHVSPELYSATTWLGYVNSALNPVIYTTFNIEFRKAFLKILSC
D(1B) dopamine receptor (Homo sapiens), sequence (P21918 whole entry): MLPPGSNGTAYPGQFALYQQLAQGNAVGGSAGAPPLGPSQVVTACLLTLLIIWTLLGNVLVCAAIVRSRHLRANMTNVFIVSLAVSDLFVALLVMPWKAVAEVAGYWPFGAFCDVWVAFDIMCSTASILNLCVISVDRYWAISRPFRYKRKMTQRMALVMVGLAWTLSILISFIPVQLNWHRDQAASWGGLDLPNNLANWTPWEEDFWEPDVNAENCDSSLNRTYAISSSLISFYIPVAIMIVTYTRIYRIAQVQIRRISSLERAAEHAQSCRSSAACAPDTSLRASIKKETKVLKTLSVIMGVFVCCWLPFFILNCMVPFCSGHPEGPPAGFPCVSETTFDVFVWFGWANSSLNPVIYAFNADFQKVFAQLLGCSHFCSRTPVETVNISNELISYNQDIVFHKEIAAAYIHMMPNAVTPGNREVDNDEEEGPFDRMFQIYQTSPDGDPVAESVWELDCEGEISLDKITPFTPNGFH
5-hydroxytryptamine receptor 1D (Homo sapiens), sequence (P28221 whole entry): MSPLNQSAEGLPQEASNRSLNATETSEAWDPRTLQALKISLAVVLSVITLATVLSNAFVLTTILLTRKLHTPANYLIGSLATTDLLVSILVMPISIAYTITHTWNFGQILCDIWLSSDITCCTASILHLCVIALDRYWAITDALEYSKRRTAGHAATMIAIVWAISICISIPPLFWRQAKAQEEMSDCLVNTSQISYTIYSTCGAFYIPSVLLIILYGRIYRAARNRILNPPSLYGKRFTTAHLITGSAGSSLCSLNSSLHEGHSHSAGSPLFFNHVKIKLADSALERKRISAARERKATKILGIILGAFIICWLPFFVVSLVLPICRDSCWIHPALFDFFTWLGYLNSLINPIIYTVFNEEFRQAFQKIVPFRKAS
D(2) dopamine receptor (Homo sapiens), sequence (P14416 whole entry): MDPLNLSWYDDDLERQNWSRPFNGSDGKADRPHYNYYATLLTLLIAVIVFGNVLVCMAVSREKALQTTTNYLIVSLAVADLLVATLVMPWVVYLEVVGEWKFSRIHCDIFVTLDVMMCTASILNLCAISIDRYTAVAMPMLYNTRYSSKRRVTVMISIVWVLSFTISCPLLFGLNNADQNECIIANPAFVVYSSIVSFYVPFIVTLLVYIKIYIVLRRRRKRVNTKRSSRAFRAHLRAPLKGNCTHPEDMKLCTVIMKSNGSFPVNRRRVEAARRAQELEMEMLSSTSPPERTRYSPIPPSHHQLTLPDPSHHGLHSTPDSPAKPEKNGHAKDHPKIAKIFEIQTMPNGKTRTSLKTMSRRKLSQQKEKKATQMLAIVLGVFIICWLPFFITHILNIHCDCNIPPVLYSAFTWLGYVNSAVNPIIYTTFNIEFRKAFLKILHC
5-hydroxytryptamine receptor 7 (Homo sapiens), sequence (P34969 whole entry): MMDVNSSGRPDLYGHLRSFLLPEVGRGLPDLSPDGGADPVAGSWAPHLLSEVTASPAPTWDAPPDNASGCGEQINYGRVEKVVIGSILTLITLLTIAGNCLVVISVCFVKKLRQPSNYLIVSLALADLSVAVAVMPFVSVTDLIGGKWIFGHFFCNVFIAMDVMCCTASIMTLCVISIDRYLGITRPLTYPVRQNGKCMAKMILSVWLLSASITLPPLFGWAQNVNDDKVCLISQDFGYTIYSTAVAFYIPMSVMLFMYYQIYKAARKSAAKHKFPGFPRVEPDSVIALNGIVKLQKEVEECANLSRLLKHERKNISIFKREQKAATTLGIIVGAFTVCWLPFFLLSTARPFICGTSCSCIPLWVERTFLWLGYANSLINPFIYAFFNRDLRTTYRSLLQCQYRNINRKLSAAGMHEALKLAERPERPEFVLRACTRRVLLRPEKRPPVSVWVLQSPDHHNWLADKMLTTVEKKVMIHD
5-hydroxytryptamine receptor 2B (Homo sapiens), sequence (P41595 whole entry): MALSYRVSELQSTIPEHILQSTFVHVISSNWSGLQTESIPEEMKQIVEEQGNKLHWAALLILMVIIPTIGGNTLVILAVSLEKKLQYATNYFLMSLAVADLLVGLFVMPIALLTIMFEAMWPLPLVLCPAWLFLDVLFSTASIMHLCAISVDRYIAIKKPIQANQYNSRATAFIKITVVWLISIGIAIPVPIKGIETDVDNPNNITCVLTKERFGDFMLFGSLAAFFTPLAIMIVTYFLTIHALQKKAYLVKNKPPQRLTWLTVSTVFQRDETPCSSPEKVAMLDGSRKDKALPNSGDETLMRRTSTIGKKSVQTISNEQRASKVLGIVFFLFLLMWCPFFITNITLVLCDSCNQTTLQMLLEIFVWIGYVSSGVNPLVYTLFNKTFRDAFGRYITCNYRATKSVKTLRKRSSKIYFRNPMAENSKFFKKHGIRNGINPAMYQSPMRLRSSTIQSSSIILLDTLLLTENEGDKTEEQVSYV
5-hydroxytryptamine receptor 2A (Homo sapiens), sequence (P28223 whole entry): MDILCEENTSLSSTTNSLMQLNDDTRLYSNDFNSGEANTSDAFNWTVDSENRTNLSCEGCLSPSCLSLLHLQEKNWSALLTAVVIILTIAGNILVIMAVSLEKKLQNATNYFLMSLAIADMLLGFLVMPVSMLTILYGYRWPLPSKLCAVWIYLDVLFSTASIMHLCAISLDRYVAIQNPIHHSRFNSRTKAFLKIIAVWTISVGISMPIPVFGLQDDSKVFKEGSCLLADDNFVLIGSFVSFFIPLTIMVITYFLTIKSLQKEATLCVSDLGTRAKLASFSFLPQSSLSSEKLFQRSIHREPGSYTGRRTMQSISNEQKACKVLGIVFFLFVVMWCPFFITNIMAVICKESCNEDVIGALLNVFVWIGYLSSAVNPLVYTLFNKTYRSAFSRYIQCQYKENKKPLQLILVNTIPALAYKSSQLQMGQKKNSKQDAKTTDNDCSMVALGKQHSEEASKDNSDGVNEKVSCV
5-hydroxytryptamine receptor 1B (Homo sapiens), sequence (P28222 whole entry): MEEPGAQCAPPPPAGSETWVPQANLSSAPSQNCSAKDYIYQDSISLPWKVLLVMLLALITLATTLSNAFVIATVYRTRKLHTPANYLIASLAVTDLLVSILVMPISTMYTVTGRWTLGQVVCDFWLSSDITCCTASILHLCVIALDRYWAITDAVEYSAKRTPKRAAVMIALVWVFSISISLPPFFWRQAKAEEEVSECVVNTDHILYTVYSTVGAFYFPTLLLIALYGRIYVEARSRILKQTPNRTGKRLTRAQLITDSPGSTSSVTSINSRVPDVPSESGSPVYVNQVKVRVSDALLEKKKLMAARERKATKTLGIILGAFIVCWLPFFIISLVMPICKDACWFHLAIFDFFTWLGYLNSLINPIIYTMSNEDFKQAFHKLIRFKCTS

Regarding `Cc1ccc(S(=O)(=O)n2ccc3ccc(N4CCN5CCCC5C4)cc32)cc1` (centres undefined), the inhibition constant (Ki) in [1] came out at 3.3 nM.
As to `O=S(=O)(c1cccc2ccccc12)n1ccc2ccc(C3=CCN4CCCC4C3)cc21` (centres undefined), in assay [1], the affinity, expressed as Ki, was 1.3 nM.
On the same count and under the same terms, in the case of `O=S(=O)(c1ccc2ccccc2c1)n1ccc2ccc(N3CCN4CCCCC4C3)cc21` (centres undefined) it was 3 nM; in that of `O=S(=O)(c1cccc2ccccc12)n1ccc2ccc(C3(O)CCN4CCCC4C3)cc21` (centres undefined), 4.7 nM.
On to `O=S(=O)(c1cccc2ccccc12)n1ccc2ccc(N3CCN4CCCC4C3)cc21` (centres undefined), for which the inhibition was 79% in assay [2]; 2% in assay [3]; 9% in assay [4]; 5% in assay [5]; 32% in assay [6]; 36% in assay [7]. Also, the inhibition in [8] was determined as 17%; in assay [9], 8%; in [10] it was 0%; in [11], 1%; in [12], 22%; in assay [13] it was 0%. The inhibition in assay [14] is 0%; in assay [15] it was 0%; in assay [16] it was 7%.
Take `O=S(=O)(c1cccc2ccccc12)n1ccc2ccc(C3CCN4CCCC4C3)cc21` (single isomer, unassigned; less polar): the affinity in assay [1] corresponds to a Ki of 0.6 nM. That is a sub-nanomolar value.
In [1], `O=S(=O)(c1cccc2ccccc12)n1ccc2ccc(N3CCN4CCCCC4C3)cc21` (centres undefined) returned a Ki of 1.7 nM.
Same read-out and setting: the value for `Cc1ccc(S(=O)(=O)n2ccc3ccc(N4CCN5CCCCC5C4)cc32)cc1` (centres undefined) was 4.9 nM; that for `O=S(=O)(c1ccccc1)n1ccc2ccc(N3CCN4CCCCC4C3)cc21` (centres undefined) was 5.7 nM; that for `O=S(=O)(c1ccc(F)cc1F)n1ccc2ccc(N3CCN4CCCCC4C3)cc21` (centres undefined) was 3.6 nM.

By Ki is commonly meant a dissociation constant, usually derived from enzyme kinetics or from competition with a known ligand. One may read the inhibition as the relative decrease from the control value, in per cent. Read a low inhibition as a response near the control.
